Source: ChEMBL document CHEMBL4340512, “Discovery of novel triazolo[4,3-b]pyridazin-3-yl-quinoline derivatives as PIM inhibitors” (Eur J Med Chem, 2019)

What was measured:
PC-3 [1] = test: Antiproliferative activity against human PC3 assessed as combination index at 20 uM incubated for 72 hrs in presence of GI50 dose of Bortezomib by CellTiter-Glo luminescence assay; format: functional
COLO 205 = test: Antiproliferative activity against human COLO205 cells incubated for 72 hrs by CellTiter-Glo luminescence assay; format: functional; conditions: COLO 205, 72 h
SW480 = test: Antiproliferative activity against human SW480 cells incubated for 72 hrs by CellTiter-Glo luminescence assay; format: functional; conditions: SW480, 72 h
A673 = test: Antiproliferative activity against human A673 cells incubated for 72 hrs by CellTiter-Glo luminescence assay; format: functional; conditions: A673, 72 h
MCF7 = test: Antiproliferative activity against human MCF7 cells incubated for 72 hrs by CellTiter-Glo luminescence assay; format: functional; conditions: MCF7, 72 h
K562 = test: Antiproliferative activity against human K562 cells incubated for 72 hrs by CellTiter-Glo luminescence assay; format: functional; conditions: K562, 72 h
JeKo-1 [2] = test: Antiproliferative activity against human JeKo1 assessed as combination index at 10 uM incubated for 72 hrs in presence of GI50 dose of Lapatinib by CellTiter-Glo luminescence assay; format: functional
U-87 MG [3] = test: Antiproliferative activity against human U87MG cells incubated for 72 hrs by CellTiter-Glo luminescence assay; format: functional, U-87MG ATCC
NAMALVA = test: Antiproliferative activity against human NAMALWA cells incubated for 72 hrs by CellTiter-Glo luminescence assay; format: functional
MIA PaCa-2 = test: Antiproliferative activity against human MIAPaCa2 assessed as combination index at 20 uM incubated for 72 hrs in presence of GI50 dose of Lapatinib by CellTiter-Glo luminescence assay; format: functional
MDA-MB-231 [4] = test: Antiproliferative activity against human MDA-MB-231 assessed as combination index at 20 uM incubated for 72 hrs in presence of GI50 dose of Lapatinib by CellTiter-Glo luminescence assay; format: functional
SK-OV-3 = test: Antiproliferative activity against human SKOV3 cells incubated for 72 hrs by CellTiter-Glo luminescence assay; format: functional; conditions: SK-OV-3, 72 h
PC-3 [5] = test: Antiproliferative activity against human PC3 cells incubated for 72 hrs by CellTiter-Glo luminescence assay; format: functional; conditions: PC-3, 72 h
HCT-116 = test: Antiproliferative activity against human HCT116 assessed as combination index at 20 uM incubated for 72 hrs in presence of GI50 dose of Lapatinib by CellTiter-Glo luminescence assay; format: functional
ASPC1 = test: Antiproliferative activity against human Aspc-1 cells incubated for 72 hrs by CellTiter-Glo luminescence assay; format: functional; conditions: ASPC1, 72 h
U-87 MG [6] = test: Antiproliferative activity against human U87MG assessed as combination index at 20 uM incubated for 72 hrs in presence of GI50 dose of Lapatinib by CellTiter-Glo luminescence assay; format: functional, U-87MG ATCC
MDA-MB-231 [7] = test: Antiproliferative activity against human MDA-MB-231 assessed as combination index at 20 uM incubated for 72 hrs in presence of GI50 dose of Palbociclib by CellTiter-Glo luminescence assay; format: functional
[8] = Antiproliferative activity against human TC71 cells incubated for 72 hrs by CellTiter-Glo luminescence assay; format: functional; conditions: TC-71, 72 h
PC-3 [9] = test: Antiproliferative activity against human PC3 assessed as combination index at 20 uM incubated for 72 hrs in presence of GI50 dose of Vorinostat by CellTiter-Glo luminescence assay; format: functional
T47D = test: Antiproliferative activity against human T47D cells incubated for 72 hrs by CellTiter-Glo luminescence assay; format: functional
DU-145 = test: Antiproliferative activity against human DU145 assessed as combination index at 20 uM incubated for 72 hrs in presence of GI50 dose of Lapatinib by CellTiter-Glo luminescence assay; format: functional
LNCaP = test: Antiproliferative activity against human LNCAP cells incubated for 72 hrs by CellTiter-Glo luminescence assay; format: functional
MV4-11 [10] = test: Antiproliferative activity against human MV4-11 assessed as combination index at 10 uM incubated for 72 hrs in presence of GI50 dose of Taxotere by CellTiter-Glo luminescence assay; format: functional
JeKo-1 [11] = test: Antiproliferative activity against human JeKo1 assessed as combination index at 10 uM incubated for 72 hrs in presence of GI50 dose of Palbociclib by CellTiter-Glo luminescence assay; format: functional
T84 = test: Antiproliferative activity against human T84 cells incubated for 72 hrs by CellTiter-Glo luminescence assay; format: functional; conditions: T84, 72 h
BXPC-3 = test: Antiproliferative activity against human BxPC3 cells incubated for 72 hrs by CellTiter-Glo luminescence assay; format: functional; conditions: BXPC-3, 72 h
SK-MEL19 = test: Antiproliferative activity against human SK-MEL-19 assessed as combination index at 5 uM incubated for 72 hrs in presence of GI50 dose of GDC-0941 by CellTiter-Glo luminescence assay; format: functional
MV4-11 [12] = test: Antiproliferative activity against human MV4-11 assessed as combination index at 10 uM incubated for 72 hrs in presence of GI50 dose of Lapatinib by CellTiter-Glo luminescence assay; format: functional
MDA-MB-231 [13] = test: Antiproliferative activity against human MDA-MB-231 cells incubated for 72 hrs by CellTiter-Glo luminescence assay; format: functional; conditions: MDA-MB-231, 72 h
A549 = test: Antiproliferative activity against human A549 cells incubated for 72 hrs by CellTiter-Glo luminescence assay; format: functional; conditions: A549, 72 h
[14] = Antiproliferative activity against human MDA-MB-175 cells incubated for 72 hrs by CellTiter-Glo luminescence assay; format: functional
A498 = test: Antiproliferative activity against human A498 cells incubated for 72 hrs by CellTiter-Glo luminescence assay; format: functional; conditions: A498, 72 h
[15] = Clearance in iv dosed Balb/c mouse administered as single dose measured after 0.08 to 4 hrs by HPLC/MS analysis relative to hepatic blood flow; format: ADME, organism-based; conditions: in vivo
U-87 MG [16] = test: Antiproliferative activity against human U87MG assessed as combination index at 20 uM incubated for 72 hrs in presence of GI50 dose of GDC-0941 by CellTiter-Glo luminescence assay; format: functional, U-87MG ATCC
[17] = target: Serine/threonine-protein kinase pim-1 (Homo sapiens, UniProt P11309); test: Inhibition of His tagged human recombinant PIM1 using PIM tide (ARKRRRHPSGPPTA) as substrate incubated for 1 hr by fluorescence based assay
Serine/threonine-protein kinase pim-1, sequence (P11309 whole entry): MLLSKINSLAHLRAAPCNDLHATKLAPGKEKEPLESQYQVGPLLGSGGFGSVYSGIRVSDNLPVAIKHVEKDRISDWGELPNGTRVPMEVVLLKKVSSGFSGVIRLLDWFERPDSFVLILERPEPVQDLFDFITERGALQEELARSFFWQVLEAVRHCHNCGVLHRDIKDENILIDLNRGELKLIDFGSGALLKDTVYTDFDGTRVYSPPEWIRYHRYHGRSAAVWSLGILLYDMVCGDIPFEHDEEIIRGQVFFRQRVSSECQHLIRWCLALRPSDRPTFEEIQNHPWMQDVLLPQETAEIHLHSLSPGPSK

PANC-1 = test: Antiproliferative activity against human PANC1 cells incubated for 72 hrs by CellTiter-Glo luminescence assay; format: functional; conditions: PANC-1, 72 h
JeKo-1 [18] = test: Antiproliferative activity against human JeKo1 assessed as combination index at 10 uM incubated for 72 hrs in presence of GI50 dose of GDC-0941 by CellTiter-Glo luminescence assay; format: functional
U-251 = test: Antiproliferative activity against human U251 cells incubated for 72 hrs by CellTiter-Glo luminescence assay; format: functional; conditions: U-251, 72 h
SK-ES1 = test: Antiproliferative activity against human SK-ES-1 cells incubated for 72 hrs by CellTiter-Glo luminescence assay; format: functional; conditions: SK-ES1, 72 h

## COCCN1CCOc2c1cnn1c(-c3ccc4cccc(NCC5CCNCC5)c4n3)nnc21
PC-3 [1]
  CI: 0.313
COLO 205
  GI50: 5.25 µM
SW480
  GI50: 8.17 µM
A673
  GI50: 12.7 µM
MCF7
  GI50: 19.6 µM
K562
  GI50: 19.9 µM
JeKo-1 [2]
  CI: 0.295
U-87 MG [3]
  GI50: 21.7 µM
NAMALVA
  GI50: 9.68 µM
MIA PaCa-2
  CI: 0.069
MDA-MB-231 [4]
  CI: 0.116
SK-OV-3
  GI50: 23.5 µM
PC-3 [5]
  GI50: 17.1 µM
HCT-116
  CI: 0.001
ASPC1
  GI50: 7.25 µM
U-87 MG [6]
  CI: 0.43
MDA-MB-231 [7]
  CI: 0.047
[8]
  GI50: 14.9 µM
PC-3 [9]
  CI: 0.346
T47D
  GI50: 10.8 µM
DU-145
  CI: 0.0001
LNCaP
  GI50: 18.6 µM
MV4-11 [10]
  CI: 0.526
JeKo-1 [11]
  CI: 0.108
T84
  GI50: 23.2 µM
BXPC-3
  GI50: 9.21 µM
SK-MEL19
  CI: 0.308
MV4-11 [12]
  CI: 0.43
MDA-MB-231 [13]
  GI50: 21.2 µM
A549
  GI50: 16.2 µM
[14]
  GI50: 10.2 µM
A498
  GI50: 8.98 µM
[15]
  CLH: < 30%
U-87 MG [16]
  CI: 0.008
[17]
  IC50: 0.007 µM
PANC-1
  GI50: 25.4 µM
JeKo-1 [18]
  CI: 0.295
U-251
  GI50: 17.8 µM
SK-ES1
  GI50: 7.38 µM
